Test results reported in PubChem BioAssay (NCI).
Where “and” joins values, the source holds several entries; their conditions need not be identical. Identical values can stand only once.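 Method: 48-hour compound exposure of cells in 96-well plates, five concentrations, linear interpolation of endpoints. The concentration for 50% growth inhibition is given as GI50. The concentration for full growth arrest is given as TGI.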

Experiments:
Assay in all cases: NCI tumour cell line growth inhibition, 48 h
A498 renal = test system: A498 renal
A549 NSCLC = test system: A549 NSCLC
ACHN renal = test system: ACHN renal
HL-60(TB) leukemia = test system: HL-60(TB) leukemia
IGROV1 ovarian = test system: IGROV1 ovarian
K-562 leukemia = test system: K-562 leukemia
MOLT-4 leukemia = test system: MOLT-4 leukemia
OVCAR-4 ovarian = test system: OVCAR-4 ovarian
RXF 393 renal = test system: RXF 393 renal
HS 578T breast = test system: HS 578T breast

SMILES | TGI (A498 renal) | TGI (A549 NSCLC) | TGI (ACHN renal) | TGI (HL-60(TB) leukemia) | TGI (IGROV1 ovarian) | TGI (K-562 leukemia) | TGI (MOLT-4 leukemia) | TGI (OVCAR-4 ovarian) | TGI (RXF 393 renal) | GI50 (A498 renal) | GI50 (A549 NSCLC) | GI50 (ACHN renal) | GI50 (HL-60(TB) leukemia) | GI50 (HS 578T breast) | TGI (HS 578T breast) | GI50 (IGROV1 ovarian) | GI50 (MOLT-4 leukemia) | GI50 (OVCAR-4 ovarian) | GI50 (K-562 leukemia) | GI50 (RXF 393 renal)
CN(C(=O)C1CC1)C1C2CN3CCC(O2)C13 (stereo unspecified) | > 100 µM | > 100 µM | > 100 µM | > 100 µM | > 100 µM | > 100 µM | > 100 µM | > 100 µM | > 100 µM | – | – | – | – | – | – | – | – | – | – | –
C=CC[C@@]1(C#N)C[C@H](C[C@]2(C#N)C[C@H](CCl)OC(C)(C)O2)OC(C)(C)O1 | > 100 µM | > 100 µM | > 100 µM | > 100 µM | > 100 µM | > 100 µM | > 100 µM | > 100 µM | > 100 µM | – | – | – | – | – | – | – | – | – | – | –
NC(=O)C12CCC1C1CCCCC12N1CCOCC1 (stereo unspecified) | > 100 µM | > 100 µM | > 100 µM | > 100 µM | > 100 µM | > 100 µM | > 100 µM | > 100 µM | > 100 µM | – | – | – | – | – | – | – | – | – | – | –
CO[C@H]1/C=C/C[C@H](C)[C@@H](C)S(=O)(=O)NC(=O)c2ccc3c(c2)N(C[C@@H]2CC[C@H]21)C[C@@]1(CCCc2cc(Cl)ccc21)CO3 | 3.47 µM | 12.7 µM | 11.8 µM | 0.655 µM | 10.6 µM | – | 8.8 µM | 12.1 µM | – | 1.45 µM | 3.29 µM | 3.39 µM | 0.246 µM | 1.54 µM | 7.24 µM | 3.08 µM | 1.73 µM | 2.46 µM | – | –
CC(=O)Oc1cc(OC(C)=O)c2cc3c(cc2c1OC(C)=O)C(=O)C1(CCCC1)C3=O | – | 40.4 µM | 31.5 µM | 73.6 µM | 32.4 µM | 49.3 µM | 15 µM | 33 µM | 31.3 µM | – | – | – | – | – | – | – | – | – | – | –
COc1cc(C(=O)/C=C/c2c(-c3cccs3)nc3ccccn23)cc(OC)c1OC | > 100 µM | 5.89 µM | 5.09 µM | 5.01 µM | 3.73 µM | – | 4.39 µM | 21.6 µM | – | 0.987 µM | 2.04 µM | 2.09 µM | 2.01 µM | – | – | 1.89 µM | 1.77 µM | 3.13 µM | – | –
Cc1ccc(C(=O)NC(C)C)cc1N=NN(C)C | – | > 100 µM | > 100 µM | – | > 100 µM | – | – | > 100 µM | – | – | – | – | – | – | – | – | – | – | – | –
O=C(Cc1nc2ccccc2s1)C(=O)Nc1ccc(Cl)cc1Cl | – | > 100 µM | > 100 µM | – | > 100 µM | > 100 µM | > 100 µM | > 100 µM | – | – | – | – | – | – | – | – | – | – | – | –
CC(C)(C)[Si](Nc1ccccc1)(c1ccccc1)c1ccccc1 | 31.3 µM | 28.2 µM | 30.1 µM | 31.3 µM | 28.3 µM | 25.1 µM | 26.2 µM | 27.1 µM | 26.5 µM | – | – | – | – | – | – | – | – | – | – | –
CC(C)[C@H](O)C(=O)N[C@H]1Cc2ccc3c(c2)[C@]24C5=C(N=C(O5)[C@H](C(C)C)NC1=O)c1nc(Cl)c(o1)-c1c(Cl)[nH]c5cccc(c15)-c1cccc2c1N[C@H]4O3 | > 10 µM | > 10 µM | 5.3 µM | – | > 10 µM | > 10 µM | > 10 µM | > 10 µM | – | – | < 0.001 µM | – | – | – | > 10 µM | < 0.001 µM | – | – | < 0.001 µM | –
O=C(Cc1ccccc1)NN1C(=O)C(Cl)C1c1ccccc1 (stereo unspecified) | – | > 100 µM | > 100 µM | > 100 µM | > 100 µM | > 100 µM | 81.8 µM | > 100 µM | > 100 µM | – | – | – | – | – | – | – | – | – | – | –
CC1(C)CC(O)CCCCCCOc2c(CN)cccc2NC(=O)c2nc(cnc2N)-c2ccc(cc2)S1(=O)=O (stereo unspecified) | 0.84 µM | – | 2.04 µM | – | 1.48 µM | 2.69 µM | 2.01 µM | 3.43 µM | 1.54 µM | 0.0151 µM | – | 0.0214 µM | – | – | – | 0.148 µM | < 0.0122 µM | 1.3 µM | 0.0538 µM | < 0.01 µM
CCCCc1oc2ccccc2c1C(=O)c1cc(I)c(OCCN(CC)CC)c(I)c1 | 14.3 µM | 15.8 µM and 70.3 µM | 15.6 µM | 3.88 µM and 7.09 µM | – | 9.87 µM | 4.27 µM and 7.8 µM | 16.2 µM and 20.9 µM | 2.97 µM and 8.79 µM | – | 3.72 µM | 4.14 µM | 1.93 µM | – | – | 4.66 µM | 1.92 µM | 3.47 µM | – | 1.26 µM
COC(=O)NN=C1C(C)(C)C(=NNC(=O)OC)C1(C)C | > 100 µM | > 100 µM | > 100 µM | > 100 µM | > 100 µM | > 100 µM | > 100 µM | > 100 µM | > 100 µM | – | – | – | – | – | – | – | – | – | – | –
CN(C)NC(=S)NC12CC3CC(CC(C3)C1)C2 | > 100 µM | > 100 µM | > 100 µM | > 100 µM | > 100 µM | > 100 µM | > 100 µM | > 100 µM | > 100 µM | – | – | – | – | – | – | – | – | – | – | –
CCOC(CN(C)C(=O)OCC(Cl)(Cl)Cl)OCC | – | > 100 µM | > 100 µM | 59.1 µM | > 100 µM | > 100 µM | > 100 µM | > 100 µM | > 100 µM | – | – | – | – | – | > 100 µM | – | – | – | – | –
C[n+]1ccc2[nH]c3ccccc3c2c1 | > 100 µM | > 100 µM | > 100 µM | > 100 µM | > 100 µM | > 100 µM | > 100 µM | > 100 µM | > 100 µM | – | – | – | – | – | – | – | – | – | – | –
CCCCCC/C=C/CCCCCCCc1cccc(O)c1C(=O)O | – | > 100 µM | > 100 µM | > 100 µM | > 100 µM | > 100 µM | > 100 µM | > 100 µM | – | – | – | – | – | – | – | – | – | – | – | –
O=C(Nc1cc([N+](=O)[O-])cc([N+](=O)[O-])c1)OC1C2CCC1C1OC1C2 (stereo unspecified) | > 50 µM | > 50 µM | > 50 µM | > 50 µM | > 50 µM | > 50 µM | > 50 µM | > 50 µM | > 50 µM | – | – | – | – | – | – | – | – | – | – | –
CCC[CH2][Sn]1([CH2]CCC)[O]CC([CH2][Sn]([c]2ccccc2)([c]2ccccc2)[c]2ccccc2)[O]1 (stereo unspecified) | – | 31.4 µM | 32.5 µM | 8.38 µM | 29.2 µM | 13.6 µM | 28.5 µM | – | 15.4 µM | – | 16.5 µM | 17 µM | 2.47 µM | – | – | 15.2 µM | 3.22 µM | – | 2.98 µM | 3.21 µM
CN(/C(=N\O)c1ccccc1)c1ccccc1 | – | > 100 µM | – | 48.7 µM | – | – | – | > 100 µM | – | – | – | – | – | – | – | – | – | – | – | –
